# Measurements reported in patent publication US10631537B2, “Disinfectant composition having residual biocidal properties” (LONZA LLC, priority 2016, dated 2020).
# Assays:
# P. aeruginosa = test: Second screening: efficacy of dried film after abrasion (0 rub vs 12 dry rubs); type: cell-based; settings: active 0.4%, film PVOH, about 30 mg; for Log10 Reduction, 12 dry Rubs: no re-inoculation between rubs
# Protocol: (§1) First round of micro test was to evaluate the efficacy of the biocides against P. aeruginosa. About 30 mg of the biocide/polymer based formulation were coated on the one square inch area of a stainless steel coupon. The treated stainless steel coupons were left on the bench for air drying overnight. The dried stainless steel test samples were sent to a micro lab for efficacy testing against P. aeruginosa ATCC 15442 following a modified version of Residual Self-Sanitizing Activity on Hard, Non-Porous Surfaces (EPA Protocol #01-1A). […] Samples were inoculated with the test organism and held for a 5 minute contact time. Three replicates were tested for each sample. Second round of testing was to compare the efficacy after an abrasion process. About 30 mg of the test formulation was coated on the one square inch area of a stainless steel coupon. Samples were divided into two groups: one group had 0 rub, and the other group had 12 dry rubs. No re-inoculation was applied between rubs.
# P. aeruginosa ATCC 15442 = test: First screening: residual self-sanitizing activity of dried film on stainless steel coupon, no wearing (modified EPA Protocol #01-1A); type: cell-based; settings: about 30 mg on one square inch, dried overnight, 5 minute contact time
# Protocol: as §1, with “sample.” for “sample. Second round of testing was to compare the efficacy after an abrasion process. About 30 mg of the test formulation was coated on the one square inch area of a stainless steel coupon. Samples were divided into two groups: one group had 0 rub, and the other group had 12 dry rubs. No re-inoculation was applied between rubs.”
# [1] = active concentration 0.4%, film PVOH
Compound,"Log10 Reduction, 12 dry Rubs (P. aeruginosa) [log10]","Log10 Reduction, No Rub (P. aeruginosa) [log10]","Log reduction (with culture dilution), average (P. aeruginosa ATCC 15442; active concentration 1.0%, film PVOH) [log]","Log reduction (with culture dilution), average (P. aeruginosa ATCC 15442; [1]) [log]","Log reduction (with culture dilution), average (P. aeruginosa ATCC 15442; active concentration 0.4%, film PVP) [log]"
N=C(NCCCCCCNC(=N)NC(=N)Nc1ccc(Cl)cc1)NC(=N)Nc1ccc(Cl)cc1 [Chlorhexidine digluconate],5.04,5.42,≥4.85,–,–
"CCCCCCCCCCCCN(CCCN)CCCN [N,N-bis(3-aminopropyl) dodecylamine, N,N-bis(3-aminopropyl)dodecylamine]",4.77,5.22,–,≥4.85,4.05
Alkyldimethyl benzyl ammonium chlorides,3.48,3.56,–,3.85,–
